Experiments:
Dirofilaria immitis = assay: Larval motility assay on Dirofilaria immitis; conditions: 72 h, L1 stage larvae, 3 days, relative to DMSO only, read-out: percent motility inhibition
Method: Larval Motility Assay on Dirofilaria immitis
Five hundred L1 stage larvae of D. immitis were diluted in a predetermined conditioned medium and introduced into each well of a 96-well plate. DMSO diluted solutions of various compounds of the present invention were added at the final concentration of 50 ppm to the wells of the 96-well plate. The plate was allowed to stand for 3 days, and then larval motility was examined. The percent motility inhibition in the wells of each treatment was calculated relative to the wells of treatment with DMSO only.

Haemonchus contortus = assay: Larval motility assay on Haemonchus contortus; conditions: 96 h, L1 stage larvae, 4 days, relative to DMSO only, read-out: percent motility inhibition
Method: Larval Motility Assay on Haemonchus contortus DMSO diluted solutions of various compounds of the present invention were added at the final concentration of 50 ppm to the wells of a 96-well plate containing a predetermined conditioned medium. Twenty L1 stage larvae of H. contortus were introduced into each well of the 96-well plate. The plate was allowed to stand for 4 days, and then larval motility was examined. The percent motility inhibition in the wells of each treatment was calculated relative to the wells of treatment with DMSO only.

Ctenocephalides felis = assay: whole plant or invertebrate; format: in vivo; conditions: 50 ppm in bovine blood, oral via feeder, adults, following day, read-out: mortality rate
Rhipicephalus sanguineus = assay: Assay for transdermal parasiticidal activity against nymphs of Rhipicephalus sanguineus; format: in vivo; conditions: 48 h, read-out: mortality rate
From the text: Assay for Transdermal Parasiticidal Activity Against Nymphs of Rhipicephalus sanguineus
DMSO diluted solutions of various compounds of the present invention were individually diluted to the final concentration of 100 ppm with an acetone/triton mixture and applied to the inside of vented sample bottles. After overnight drying, ten nymphs of R. sanguineus were introduced into each bottle, and the mortality rate was examined two days later. Aberrant adults were regarded as the dead.

SMILES: CCS(=O)(=O)c1cc(/C(=N/OCCSC)n2cncn2)cnc1-c1nc2cc(C(F)(F)C(F)(F)F)nnc2n1C [Compound 1-22]
- inhibition at 50 ppm (Dirofilaria immitis): ≥ 50%
- inhibition at 50 ppm (Haemonchus contortus): ≥ 50%
- mortality at 50 ppm (Ctenocephalides felis): ≥ 50%

SMILES: CCS(=O)(=O)c1cc(/C(=N/OCCSC)OC)cnc1-c1nc2cc(C(F)(F)C(F)(F)F)nnc2n1C [Compound 1-1, methyl 5-ethylsulfonyl-N-(2-methylthioethoxy)-6-(6-pentafluoroethyl-3-methyl-3H-imidazo[4,5-c]pyridazin-2-yl)nicotinimidate]
- mortality at 100 ppm (Rhipicephalus sanguineus): ≥ 50%
- inhibition at 50 ppm (Dirofilaria immitis): ≥ 50%
- inhibition at 50 ppm (Haemonchus contortus): ≥ 50%
- mortality at 50 ppm (Ctenocephalides felis): ≥ 50%

SMILES: CCS(=O)(=O)c1cc(/C(=N/OCCS(C)(=O)=O)OC)cnc1-c1nc2cc(C(F)(F)C(F)(F)F)nnc2n1C [Compound 1-3, Methyl 5-ethylsulfonyl-N-(2-methylsulfonylethoxy)-6-(6-pentafluoroethyl-3-methyl-3H-imidazo[4,5-c]pyridazin-2-yl)nicotinimidate]
- inhibition at 50 ppm (Dirofilaria immitis): ≥ 50%
- inhibition at 50 ppm (Haemonchus contortus): ≥ 50%
- mortality at 50 ppm (Ctenocephalides felis): ≥ 50%

SMILES: CCS(=O)(=O)c1cc(/C(Br)=N/OCCSC)cnc1-c1nc2cc(C(F)(F)C(F)(F)F)nnc2n1C [Compound 1-16]
- inhibition at 50 ppm (Dirofilaria immitis): ≥ 50%

SMILES: CCS(=O)(=O)c1cc(/C(=N/OCCSC)SC)cnc1-c1nc2cc(C(F)(F)C(F)(F)F)nnc2n1C [Compound 1-19, Methyl 5-ethylsulfonyl-N-(2-methylthioethoxy)-6-(6-pentafluoroethyl-3-methyl-3H-imidazo[4,5-c]pyridazin-2-yl)nicotinyl thioimidate]
- mortality at 100 ppm (Rhipicephalus sanguineus): ≥ 50%
- inhibition at 50 ppm (Dirofilaria immitis): ≥ 50%
- inhibition at 50 ppm (Haemonchus contortus): ≥ 50%

From patent US12486272B2 (NIHON NOHYAKU CO., LTD., priority 2019, dated 2025)
